From patent publication US9689042B2, “Use of glycolytic pathways for inhibiting or measuring oncogenic signaling” (The Regents of the University of California, priority 2012, dated 2017)
“Also recorded” adds a separate entry of the source.

Tests used:
EGFR, ITGB1, GLUT3 mRNA = test: Quantitative PCR of EGFR, ITGB1 and GLUT3 mRNA in T4-2 cells; format: cell-based, human; conditions: 3D lrECM, normalized to 18S ribosomal RNA
Procedure: First strand cDNA pools of S1, T4-2 and reverted T4-2 cells were obtained from total RNA of each sample by using SuperScript II (Invitrogen). For each sample, reverse transcription was carried out with random hexamer and with oligo dT primer following the manufacturer's instruction, and the two reactions were mixed in a ratio of 9:1. Expression levels of EGFR, ITGB1, GLUT3 and 18S ribosomal RNA (used as a control) were quantified in LightCycler system (Roche) using QuantiTect SYBR Green PCR Kits (QIAGEN) and the reverse transcription mixtures. Expression levels of EGFR, ITGB1, GLUT3 were normalized to that of 18S ribosomal RNA.

T4-2 cells [1] = test: Mitochondrial activity (MitoTracker oxidation) assay in 3D lrECM; format: cell-based, human
Procedure: Cells suspended in 200 μl lrECM were seeded in 12 well glass-bottom plates (14 mm diameter; MatTek Corporation). Gels were overlaid with 500 μl H14 media and cultured for 10 days before each assay unless otherwise described.
For mitochondrial activity, we slightly modified the method described previously (Morici et al., 2007). Briefly, cells were incubated with 2 μM MitoTracker® Orange CM-H2 TMRos (Invitrogen) for 1 hour and fixed with PFA as above. Cells were counterstained with Hoechst 33342 (Invitrogen), which is known also to bind to DNA stoichiometrically, then MitoTracker and Hoechst staining were measured by taking z-section images from top to bottom of the gels using confocal microscopy.
In each assay, one well, containing only lrECM, was made for background measurements. Glucose uptake measured by 2DG uptake, lactate production and MitoTracker staining were normalized using total DNA levels, and presented relative to that of control (either S1 or non-treated T4-2 cells).

[2] = system: EGFR, β1 integrin, Akt, MEK, GLUT3, glycolytic enzymes in T4-2 cells; test: Western blots of signaling intermediates, GLUT3 and metabolic enzymes in 3D lrECM cultures of T4-2 cells; format: cell-based, human; conditions: T4-2 cells
Procedure: Cell colonies were separated from lrECM gels by shaking in PBS containing 5 mM EDTA and the proteinase inhibitor cocktail set I (Calbiochem) on ice for 30 min. Cells were lysed in lysis buffer (1% NP-40, 1% deoxycholate, 2% SDS, 150 mM NaCl, 20 mM Tris-HCl [pH 7.4] plus 5 mM EDTA and protease inhibitor cocktail set I and phosphatase inhibitor cocktail set I [Calbiochem]) and sonicated three times for 30 sec each. Proteins were separated by SDS-PAGE, transferred to nitrocellulose membranes, and probed with antibodies against the following proteins: phosphorylated MEK, MEK, phosphorylated Akt, Akt, phosphorylated AMPK, AMPK, p70S6K, phosphorylated p70S6K, CHOP, EPAC1 (Cell Signaling), β1 integrin, EGFR, activated EGFR, HIF-1α, (Chemicon International), PFKP (Abgent), GAPDH, GLUT3 (GeneTex), LDHA, PDHE1α, DLAT, DLD, HIF-3α, Rap1, sAC, EPAC2, OGT, Lamin A/C (Santa Cruz Biotechnology), Aldolase (Polysciences), GFPT (ProteinTech Group), HIF-2α (Abcam), and HA-tag (Covance). After probing with HRP-conjugated secondary antibodies, blots were developed using SuperSignal West Femto chemiluminescence reagent (Pierce Biotechnology). Images were captured using Fluor Chem 8900 imager (Alpha Innotech).

T4-2 cells [3] = conditions: T4-2 cells, 3D lrECM
Procedure: (§1) HMT-3522 cells were cultured on tissue culture plastic (2D) and in 3D lrECM gels with H14 medium, a 1:1 mix of DMEM/F12 (UCSF Cell Culture Facility) supplemented with 250 ng/ml insulin, 10 μg/ml transferrin, 2.6 ng/ml sodium selenite, 0.1 nM β-estradiol, 1.4 μM hydrocortisone and 5 μg/ml prolactin but no serum. S1 cells were additionally supplemented with 10 ng/ml EGF. MDA-MB-231 and HCC70 cells were cultured in DMEM and RPMI1640, respectively, and were supplemented with 10% fetal bovine serum (FBS).
(§2) For 3D lrECM cultures, S1 and T4-2 cells were seeded at 840,000 and 600,000 cells per cm3 respectively in lrECM gel (Cultrex), overlaid with H14 medium. MDA-MB-231 and HCC70 cells were seeded at 625,000 cell per cm3 and overlaid with H14 medium supplemented with 1% FBS. Cells were used for each assay after 10 days, unless otherwise indicated.
Pieces of lrECM gel containing cell colonies were suspended in approximately the same volume of phosphate buffered saline (PBS) and directly spread on glass slides. After brief air-drying, colonies were fixed with 3.7% paraformaldehyde (PFA) in PBS at room temperature (RT) for 10 min, washed with PBS containing 0.1 mM glycine, and permeabilized with 1:1 methanol/acetone at −20° C. for 10 min. After blocking with IF buffer (0.2% Triton X-100, 0.1% BSA [radioimmunoassay grade], 0.05% Tween 20, 7.7 mM NaN3 in PBS) containing 10% goat serum and 1% goat F(ab′)2 anti-mouse immunoglobulin G (IgG; Caltag) at RT for 30 min, colonies were stained with anti-α6 integrin antibody (Chemicon International) at 4° C. overnight. Colonies were washed extensively with IF buffer, and stained with Alexa 568-labeled anti-rat IgG antibody at RT for 2 hr. Colonies were washed with IF buffer again, and nuclei were stained with DAPI at RT for 10 min. Slides were briefly washed with PBS and mounted with 50% glycerol in PBS.
To test whether increased glucose metabolism itself is required for oncogenic signaling events, we utilized 3D lrECM cultures of HMT-3522, a breast cancer progression series which includes non-malignant (S1) and malignant (T4-2) human breast epithelial cells from the same individual (Briand et al., 1987; Petersen et al., 1992; Rizki et al., 2008). Using these cells, we have described the involvement and reciprocity of multiple signaling pathways including EGFR, β1 integrin, PI3K-Akt and MEK-ERK in oncogenic events (Beliveau et al., 2010; Bissell et al., 2005). […] We thus used this “phenotypic reversion” of the cancer cells as an assay to examine how the signaling integration plan of the breast acini could involve glucose metabolism.

[4] = system: S1 cells infected with GLUT3-HA-encoding lentivirus; test: 3D lrECM culture of S1 cells overexpressing GLUT3; format: cell-based, human; conditions: S1 cells over-expressing GLUT3-HA, 2DG 4 mM
From the text: HIV 5′ LTR sequence in pTRIPZ vector (Open Biosystems) was removed by FspI-BbvCI digestion to replace with sequence containing chimeric CMV promoter-HIV 5′ LTR. CMV promoter was amplified by PCR from pcDNA3 (Invitrogen), fused to sequence containing partial HIV 5′ LTR sequence. The resulting intermediate vector, pTRIPZ-OY (optimal yield) was digested with BbvCI and NotI, to remove sequence containing TRE-minCMV promoter, turboRFP, UbqC promoter and rtTA3 (described in the manual provided by the manufacturer). The sequences containing EF1α/HTLV hybrid promoter and multiple cloning sites were removed from pCDH-EF1-MCS-T2A-Puro vector (System Bioscience) by digestion with the same restriction enzymes, and ligated into the digested pTRIPZ-OY vector, resulting in pLETIP vector. GLUT3 cDNA fused to C-terminal HA tag was amplified from total cDNA of T4-2 cells by PCR. The primers used were as follows: 5′-[…]-3′ (SEQ ID NO: 9) and 5′-[…] TTAGCA-3′ (SEQ ID NO: 10). The amplified cDNA was digested with BamHI and XmaI, and ligated into the same sites of pBluescriptII SK(−) vector for validating the sequence. GLUT3-HA cDNA was then digested with BamHI and SmaI, and ligated into pLETIP vector digested with NotI, blunted with T4 polymerase and further digested with BamHI, resulting in pLETIP GLUT3-HA vector. […]

S1 cells = test: 3D lrECM culture of non-malignant S1 cells: acinar morphology and growth; format: cell-based, human; conditions: 2DG 4 mM, OGM 4 ng/ml
Procedure: as §1, §2
Pieces of lrECM gel containing cell colonies were suspended in approximately the same volume of phosphate buffered saline (PBS) and directly spread on glass slides. After brief air-drying, colonies were fixed with 3.7% paraformaldehyde (PFA) in PBS at room temperature (RT) for 10 min, washed with PBS containing 0.1 mM glycine, and permeabilized with 1:1 methanol/acetone at −20° C. for 10 min. […]

[5] = same inhibitor concentrations as E1

## O=CC[C@@H](O)[C@H](O)[C@H](O)CO [2DG, 2-deoxy-D-glucose]
EGFR, ITGB1, GLUT3 mRNA
  mRNA expression of EGFR, β1 integrin and GLUT3: effectively suppressed
T4-2 cells [1]
  mitochondrial activity (oxidation): essentially unaffected
[2]; 3D cultures, 2DG 4 mM
  expression of ER stress marker CHOP: unchanged
  phosphorylation of AMPK or S6K: did not affect
[2]; 3D lrECM, Western blot
  expression of GLUT3 and the glycolytic enzymes: dramatic down-regulation
  expression of PDC components: elevated
  levels and/or activities of EGFR, β1 integrin, Akt and MEK (oncogenic signaling): decrease
T4-2 cells [3]; 2DG 4 mM, IA 20 μM, OX 50 mM, Azs 20 μM, DON 20 μM, BADGP 5 mM, TM 10 ng/ml, OGM 4 ng/ml, Rapa 0.01-1.0 μM
  phenotypic reversion of the malignant phenotype: induced phenotypic reversion; also recorded: do induce phenotypic reversion
T4-2 cells [3]; [5]
  basal polarity / organized acinar structures: re-establishment of basally polarized acini
  growth / proliferation (cell numbers at the colony mid-section, EdU incorporation): growth arrest
[4]
  reversal of the disorganized phenotype caused by GLUT3 over-expression: could be reversed
S1 cells
  acinar morphology, basal polarity and growth rate of non-malignant cells: altered neither the acinar morphology nor the growth rate
